Results from patent publication US8614313B2, “Pharmaceutical compositions comprising forms of 5-azacytidine” (Pharmion LLC, priority 2003, dated 2013).

Experiments:
Type in all cases: physicochemical
[1] = Polymorphic form conversion: Form I slurried in various solvents, recovered solid analyzed using XRPD
Text: (§1) X-ray powder diffraction patterns for each sample were obtained on a Scintag XDS 2000 or a Scintag X2 θ/θ diffractometer operating with copper radiation at 45 kV and 40 mA using a Kevex Psi Peltier-cooled silicon detector or a Thermo ARL Peltier-cooled solid state detector. Source slits of 2 or 4 mm and detector slits of 0.5 or 0.3 mm were used for data collection. Recrystallized material was gently milled using an agate mortar and pestle for approximately one minute. Samples were placed in a stainless steel or silicon sample holder and leveled using a glass microscope slide. Powder diffraction patterns of the samples were obtained from 2 to 42° 2θ at 1°/minute. Calibration of the X2 diffractometer is verified annually using a silicon powder standard.
Form I of 5-azacytidine was added to various solvents in sufficient quantities to form a slurry, and the slurry allowed to equilibrate for a period of time. The solid material that was present in the slurry was recovered, dried, and analyzed using XRPD (according to the XRPD protocol included in Example 5) with the aim of detecting new polymorphs and pseudopolymorphs during the transition to the dissolved state.

[2] = Polymorphic form conversion of other forms slurried in water, solid analyzed using XRPD; details: approximate 25 mg/mL, equilibrated 15 minutes
Text: as §1

[3] = Dehydration of Form III by heating; TGA water content and XRPD
Text: as §1
Thermogravimetric Analysis (TGA) measurements for each sample were collected using a Perkin Elmer TGA 7 purged with nitrogen at approximately 20 cc/minute. A 100-mg standard weight and nickel metal were used to verify balance and temperature calibrations, respectively. Samples were heated from 25° C. to 250° C. or 300° C. at 10° C./minute.
5-azacytidine Form III was heated at 105° C. for 4 hours in an attempt to dehydrate the material. […] TGA was used to measure the water content of Form III before and after drying.

## Nc1ncn([C@@H]2O[C@H](CO)[C@@H](O)[C@H]2O)c(=O)n1 [Form I, 5-azacytidine]
[1]; slurry equilibrated 19 hours in 5% Dextrose
  XRPD Pattern Assignment: Form III
[1]; slurry equilibrated 19 hours in 5% Tween 80
  XRPD Pattern Assignment: Form III
[1]; slurry equilibrated 19 hours in 50/50 EtOH/DI Water
  XRPD Pattern Assignment: Form III
[1]; slurry equilibrated 19 hours in Acetone
  XRPD Pattern Assignment: Form I
[1]; slurry equilibrated 19 hours in DI Water
  XRPD Pattern Assignment: Form III
[1]; slurry equilibrated 19 hours in DMSO
  XRPD Pattern Assignment: Amorphous
[1]; slurry equilibrated 19 hours in Ethyl alcohol
  XRPD Pattern Assignment: Form I
[1]; slurry equilibrated 19 hours in Methyl ethyl ketone
  XRPD Pattern Assignment: Form I
[1]; slurry equilibrated 19 hours in Normal Saline
  XRPD Pattern Assignment: Form III
[1]; slurry equilibrated 19 hours in Polyethylene glycol
  XRPD Pattern Assignment: Amorphous
[1]; slurry equilibrated 19 hours in Propylene glycol
  XRPD Pattern Assignment: Amorphous
[1]; slurry equilibrated 19 hours in Water-saturated Octanol
  XRPD Pattern Assignment: Form III

## Nc1ncn([C@@H]2O[C@H](CO)[C@@H](O)[C@H]2O)c(=O)n1 [Form I/II mixed phase, 5-azacytidine]
[2]
  form observed by XRPD after slurry in water: Form III

## Nc1ncn([C@@H]2O[C@H](CO)[C@@H](O)[C@H]2O)c(=O)n1 [Form III, 5-azacytidine]
[3]; after drying at 105° C. for 4 hours
  amount of moisture (TGA): < 0.1%
[3]; heated at 105° C. for 4 hours
  XRPD powder pattern after dehydration: matches that of Form I
[3]; initial, before drying
  amount of moisture (TGA): 6.31%
